{"source": "patent US20240294465A1", "about": "“NOVEL ANTI-FIBROTIC DRUGS” (HELMHOLTZ ZENTRUM MUNCHEN - DEUTSCHES FORSCHUNGSZENTRUM FUR …, priority 2021, published 2024)", "key": {"[1]": {"system": "cell shape, microtubules and actin of phLFs", "test": "Fluorescence microscopy of cell morphology and cytoskeleton (α-Tubulin, phalloidin, calcein)", "assay_type": "cell-based, human", "source_text": "FIG. 14: Dose-response relationships of N23Ps, live imaging of ECM deposition and cell-morphology switch. (A) Structural formula for Tranilast and N23Ps (example 84 and example 85) indicating 2-butoxy-substitution at R1 and IC50 values. […] Cell nuclei in blue (HOECHST). Scale bar=500 μm. […] Cell nuclei were stained by Hoechst (blue). Scale bar=50 μm. (F) Confocal images of subconfluent phLFs+TGFβ1 stained for Hoechst (blue), calcein (green) and phalloidin (red) showing round cell morphologies after treatment with example 84 as well as extensive actin cytoskeletal rearrangements (red). […] Scale bar=500 μm. Data are presented as means t SEM. Differences between groups were evaluated with paired t-tests. * p<0.05. n=3 (three different patient phLFs).\nFIG. 16: (A) Fluorescence wide-field microscopy images (10× objective in low magnification and resolution) of phLFs treated with 5 μM DMSO, 50 μM example 84 and 100 μM Tranilast, and stained for Hoechst (blue), α-Tubulin (green) and filamentous actin (red, Phalloidin). […] Scale bar=100 μm. (B) Fluorescence wide-field microscopy images (63× objective in high magnification and resolution) of phLFs treated with either 5 μM DMSO or 50 μM example 84, and stained for Hoechst (blue), a.-Tubulin (green) and filamentous actin (red, Phalloidin). […] Scale bar=[…]. iPSC=induced pluripotent stem cells. […] Scale bar=350 μm. […] Thus, the compounds of the present invention show similar effects like colchicine on microtubules (41). Therefore, the compounds of the present invention are also for use in the treatment of inflammatory diseases such as arthrolithiasis, familiar mediterranean fever and pericarditis amongst others by the inhibition of polymorphonuclear leukocyte and macrophage motility as well as intracellular vesicular transport mechanisms.\nFor standard immunofluorescence staining, 5000 phLFs were seeded into 96 well imaging plates with a flat bottom (Cat #353376, BD Biosciences). After incubation, cells were fixed with either 4% PFA for 30 min at 37° C. or 100% methanol for 2 min at −20° C. […]"}, "[2]": {"system": "TGFβ1-induced fibulin-1 ECM deposition in primary human lung IPF-fibroblasts (phLFs)", "test": "Assessing N23P activity in inhibiting ECM deposition in IPF-fibroblasts (fibulin-1 MFI)", "assay_type": "cell-based", "details": "Homo sapiens, 72 h, 10 μM, TGFβ1 1 ng/ml, MFI, three different IPF-phLFs (n=3)", "protocol": "phLFs were cultured in DMEM F-12 medium with 20% fetal bovine serum (FBS) and antibiotic supplement as mentioned above. Cells were seeded with 6000 cells/well in 384-well CellCarrier plates (Perkin Elmer, Cat #6007550). Following overnight incubation, cells were starved in serum-reduced medium (1% FBS with 0.1 mM 2-phosphoascorbate (Sigma, Cat #49752)) for 24 h. Afterwards, cells were treated with TGFβ1 (1 ng/ml) or vehicle, and additionally small molecules or appropriate vehicle controls were added. After 72 h of incubation, medium was changed for starving medium with 1 μg/mL AlexaFluor-488 fluorophore conjugated anti-collagen-type-5 antibodies (SantaCruz, Clone C-5, Cat #sc-166155 AF488), 0.66 μg/mL AlexaFluor-555 fluorophore conjugated anti-collagen-type-1 antibodies (Rockland, Cat #600-401-103-0.1), and 1 μg/mL AlexaFluor-637 fluorophore conjugated anti-fibulin 1 antibodies (SantaCruz, Clone C-5, Cat #sc-25281 AF647) and 1 μg/mL Hoechst H33342 (Sigma). Fluorescenceconjugation of the collagen type 1 antibody was done by using the AlexaFluor-555 Protein Labeling Kit (Invitrogen, Cat #A20174) according to manufacturer's instructions. Labeling efficacy was controlled by photometrical means.\nFollowing four hours of incubation, cells were washed three times with PBS and fixed with paraformaldehyde (PFA). For automated liquid handling in 384 well plates, an INTEGRA Assist Plus (INTEGRA, Zizers, Switzerland) equipped with an INTEGRA Viaflo 1I pipette (INTEGRA, Zizers, Switzerland, Cat #4642), 125 μL GripTips™ pipette tips (INTEGRA, Zizers, Switzerland, Cat #6464) and sterile reagent reservoirs (INTEGRA, Cat #4311) were applied. All automated pipetting steps with the INTEGRA Assist Plus were performed at 9.5 μL/s in order to ensure proper integrity and attachment of the deposited ECM to the culturing surface within the wells of the 384-well plates. During cell seeding the automated liquid handling was performed at 89.3 μL/s. Removal of liquids from the well-plates was done by manually inverting the plates.\nFollowing fixation, the automated imaging was achieved by using aconfocal laser scanning microscope (LSM710, Zeiss) with automated focus detection for three-dimensional image acquisition (1024 px×1024 px×9 px which equals a dimension of 1417 μm×1417 μm×16 μm). For post-acquisition analysis images were imported into IMARIS software (Bitplane) and volume detection or alternatively quantification of the mean fluorescence intensity, as well as Hoechst-stained cell nuclei were automatically counted by using Imaris' spot detection algorithm.\nCells were seeded with 6000 cells/well in 384-well CellCarrier plates. After overnight incubation, cells were starved in serum-reduced medium (1% FBS with 0.1 mM 2-phosphoascorbate for 24 h). Then, phLFs were treated with TGFβ1 (1 ng/ml) or vehicle, and incubated together with synthesized N23Ps (10 μM) or appropriate vehicle controls. After 72 h of incubation, medium was changed for starvation medium with 1 μg/mL AlexaFluor-637 fluorophore conjugated anti-fibulin 1 antibodies (SantaCruz, Clone C-5, Cat #sc-25281 AF647) and 1 μg/mL Hoechst H33342 (Sigma). Following four hours of incubation, cells were washed three times with PBS and fixed with paraformaldehyde (PFA). Following fixation, the automated imaging was achieved by using a confocal laser scanning microscope (LSM710, Zeiss) with automated focus detection for three-dimensional image acquisition (1024 px×1024 px×9 px which equals a dimension of 1417 μm×1417 μm×16 μm). For post-acquisition analysis images were imported into IMARIS software (Bitplane) and quantified for the mean fluorescence intensity, as well as Hoechst-stained cell nuclei were automatically counted by using Imaris' spot detection algorithm.\nAssessment of ECM inhibition I: Mean fluorescence intensity (MFI) values represented the degree of fibulin-1 ECM deposition in three different IPF-phLFs (n=3). […]"}}, "note": "Entries after “also recorded” stand apart in the source; their conditions may differ."}
{"smiles": "CCCCOc1ccccc1NC(=O)/C=C/c1ccc(OC)c(OC)c1", "note": "[Example 84, (E)-N-(2-butoxyphenyl)-3-(3,4-dimethoxyphenyl)acrylamide]", "values": [{"measurement": "cell morphology", "setting": "[1]; b48: example 84 50 μM, Tranilast 100 μM", "value": "significant changes in cell-shape and eccentricity towards round cells; also recorded: cell-shape switch towards round cell morphologies"}, {"measurement": "actin filaments (Phalloidin)", "setting": "[1]; example 84 50 μM", "value": "without affecting actin filaments"}, {"measurement": "microtubules (α-Tubulin staining)", "setting": "[1]; example 84 50 μM, Tranilast 100 μM", "value": "depolymerized, that is non-filamentous, microtubules"}, {"measurement": "inhibition at 10 µM", "setting": "[2]", "value": "> 90", "unit": "%"}]}
